Measurements: the NIST ThermoML archive (doi:10.1021/je900050z)
Numbers after ± are expanded uncertainties.

Settings: Liquid

CCC(C)O (configuration not stated) [butan-2-ol]
Settings | vapor or sublimation pressure [kPa]
346.45 K | 34.67 ± 2.8
346.86 K | 35.32 ± 2.8
347.28 K | 36.01 ± 2.9
347.65 K | 36.63 ± 2.9
348.06 K | 37.31 ± 3
348.45 K | 37.99 ± 3
348.85 K | 38.64 ± 3.1
349.21 K | 39.29 ± 3.1
349.58 K | 39.95 ± 3.2
350.15 K | 40.97 ± 3.3
350.75 K | 42.05 ± 3.4
351.25 K | 43.03 ± 3.4
351.74 K | 43.96 ± 3.5
352.26 K | 44.97 ± 3.6
353.08 K | 46.6 ± 3.7
353.15 K | 46.75 ± 3.7
353.6 K | 47.65 ± 3.8
354.06 K | 48.61 ± 3.9
354.53 K | 49.61 ± 4
355 K | 50.63 ± 4
355.45 K | 51.63 ± 4.1
355.81 K | 52.39 ± 4.2
356.23 K | 53.33 ± 4.3
356.8 K | 54.63 ± 4.4
357.37 K | 55.96 ± 4.5
357.99 K | 57.41 ± 4.6
358.5 K | 58.67 ± 4.7
359.06 K | 60.03 ± 4.8
359.62 K | 61.41 ± 4.9
360.13 K | 62.73 ± 5
360.61 K | 63.97 ± 5.1
361.1 K | 65.29 ± 5.2
361.64 K | 66.71 ± 5.3
362.1 K | 67.99 ± 5.4
362.63 K | 69.43 ± 5.5
363.07 K | 70.69 ± 5.7
363.57 K | 72.12 ± 5.8
364 K | 73.36 ± 5.9
364.48 K | 74.72 ± 6
364.9 K | 76 ± 6.1
365.33 K | 77.31 ± 6.2
365.76 K | 78.65 ± 6.3
366.18 K | 79.95 ± 6.4
366.63 K | 81.35 ± 6.5
367.04 K | 82.63 ± 6.6
367.47 K | 84.03 ± 6.7
367.88 K | 85.39 ± 6.8
368.27 K | 86.71 ± 6.9
368.68 K | 88.05 ± 7
369.08 K | 89.41 ± 7.2
369.43 K | 90.67 ± 7.2
369.79 K | 91.91 ± 7.3
370.19 K | 93.33 ± 7.5
370.56 K | 94.44 ± 7.6
370.94 K | 96 ± 7.7
371.32 K | 97.35 ± 7.8
371.65 K | 98.59 ± 7.9
